Four molecules from patent publication US4965280A, “Antifungal carbinols” (E. I. Du Pont de Nemours and Company, priority 1989, dated 1990) can be followed below.

Values after ≈ are worked out from the molar mass of the structure shown. Read-outs that look alike come from different tables or passages of the source.

One may read the MIC as the smallest concentration in the dilution series that meets the test's criterion for growth inhibition.

One test concerns Phytophthora infestans. Nature of the test: whole plant or invertebrate. The format is in vivo. The settings on record: Phytophthora infestans, in Solanum lycopersicum, read-out: disease control rating, Ex. H, 100 PPM.
Test [1] concerns Candida albicans ATCC 11651. Nature of the test: In vivo systemic Candida infection in mice, primary assay. Conditions: Candida albicans, 150 mg/kg per day, read-out: % Survival. Also on record: species or system Candida albicans; CF-1 female mice. In a few lines:
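CF-1 female mice (20 g, 10 per group) were infected IV with 0.2 ml of 1×10^7/ml C. albicans ATCC 11651, then given test compound subcutaneously at 50 or 150 mg/kg/day at 1 and 6 h post-infection and once daily for three more days. Survival was followed for 21 days against infected untreated mice; ≥70% protection at 14 days was scored active.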

The test system of test [2] is Fusarium oxysporum f. sp. cucumerinum. Nature of the test: Example L cucumber wilt. In kind it is in vivo. Conditions: 336 h, 5 kg/ha, read-out: disease control rating, Ex. L. Here is the method:
[…] Seeds and soil were then inoculated with a mixture of sand, cereal and mycelium of the fungus Fusarium oxysporum f. sp. cucumerinum, causal agent of cucumber wilt, and incubated in a growth chamber at 30° C. for 14 days. Disease ratings were then made.

The test system of test [3] is Aspergillus fumigatus ATCC 28214. In words: In vitro antifungal MIC, microtiter broth dilution. The settings on record: Aspergillus fumigatus, ATCC28214, 24 h, read-out: MIC values, A. fumigatus, 30°, 24 hours. (In general: Dilution methods test growth across graded concentrations, often in twofold steps.)
Experimental: In vitro activity (Table 5) is expressed in terms of the minimal inhibitory concentration (MIC) of the test compound which inhibits the growth of yeasts and fungi.
The target organisms, Candida albicans ATCC 11651 and Aspergillus fumigatus ATCC 28214 are standardized, [V. Bezjak, J. Clinical Micro., 21 509-512 (1984)], to a concentration of 10^7 organisms/ml and maintained at -70° until use. Test compounds are solubilized in dimethyl sulfoxide (DMSO) and diluted in Eagle's Minimum Essential Medium (EMEM) broth to achieve a final concentration of 200 μg/ml. Stock solutions of standard antifungal agents are stored at -70° and diluted in EMEM as required.
The in vitro assay utilizes a microtiter broth dilution technique [L. Polonelli and G. Morace, Mycopathologia, 86, 21-28 (1984)] and C. […] The appropriate wells are inoculated with the required organism (C. albicans at 1×10^4 organisms/ml and A. fumigatus at 5×10^5 organisms/ml) and the assay incubated at 30° for 24 hours.
A further test deals with Plasmorpara viticola. Nature of the test: Example I grape downy mildew. The format is in vivo. The settings on record: read-out: disease control rating, Ex. I. The essentials: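 First, each compound is taken up in acetone amounting to 6% of the final volume. It is then suspended in purified water containing 250 ppm of the polyhydric alcohol ester surfactant TREM 014, at 100 or 20 ppm. Finally, the suspension is sprayed onto grape seedlings until run-off.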

A further test deals with Botrytis cinerea. In words: Example C bean grey mold. In kind it is in vivo. Conditions: Botrytis cinerea, 24 h, 100 PPM; read-out: disease control rating, Ex. C. The essentials:
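Spray rates: 100 and 20 ppm. Vehicle: purified water with 6% acetone by final volume plus 250 ppm TREM 014 (polyhydric alcohol esters). Host plants, broad bean seedlings, were wetted until run-off.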

The subject of another test is Venturia inaequalis. Nature of the test: Example A apple scab. In kind it is in vivo. The settings on record: 100 PPM, read-out: disease control rating, Ex. A. The essentials: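 Spray application to run-off on apple seedlings; compound at 100 or 20 ppm in water with 250 ppm TREM 014 (polyhydric alcohol esters) and 6% acetone of final volume.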
In another test the test system is Pyricularia oryzae. Nature of the test: whole plant or invertebrate. The format is in vivo. Conditions: Pyricularia oryzae, 120 h, read-out: disease control rating, Ex. E, 100 PPM.
Test [4] concerns Cercosporidium personatum. Nature of the test: Example B Peanut Late Leafspot. In kind it is in vivo. Conditions: Nothopassalora personata; 100 PPM; read-out: disease control rating, Ex. B. In a few lines: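 Spray suspensions at 100 or 20 ppm, prepared from acetone solutions (acetone 6% of final volume) in water carrying 250 ppm of a polyhydric alcohol ester surfactant, were applied to peanut seedlings until run-off.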

The test system of a further test is Puccinia recondita. Nature of the test: Example G wheat leaf rust. In kind it is in vivo. Conditions: 100 PPM, read-out: disease control rating, Ex. G.
Test [5] has as its system Rhizoctonia solani. In words: Example F rice sheath blight. In kind it is in vivo. The settings on record: Rhizoctonia solani, 144 h, 100 PPM; read-out: disease control rating, Ex. F. The essentials:
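Foliar run-off spray, rice seedlings: compound at 100 or 20 ppm in aqueous 250 ppm polyhydric alcohol ester surfactant, acetone 6% v/v final.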

Test [6] has as its system Erysiphe graminis f. sp. tritici. Nature of the test: Example D wheat powdery mildew. In kind it is in vivo. The settings on record: Blumeria graminis, 144 h; 100 PPM; read-out: disease control rating, Ex. D. In a few lines:
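Seedling wheat was treated by spraying to run-off; formulation used acetone as co-solvent (6% final) and TREM 014 surfactant at 250 ppm, with compound at 100 or 20 ppm.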

In the next test the test system is Pythium aphanadermatum. In words: Example J cucumber damping off. The format is in vivo. Conditions: Pythium, 336 h; 5 kg/ha; read-out: disease control rating, Ex. J. In a few lines:
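Seeds and soil were inoculated with a mix of sand, cereal and Pythium aphanadermatum mycelium, the fungus responsible for cucumber damping off. They were kept in a growth chamber at 30° C. for 14 days, and disease was then rated to assess control.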

Test [7] relates to Candida albicans ATCC 11651. Nature of the test: In vitro antifungal MIC, microtiter broth dilution. Conditions: Candida albicans, ATCC11651, 24 h, read-out: MIC values, C. albicans, 30°, 24 hours.
The next test has as its system Sclerotium rolfsii. In words: Example M southern blight. Conditions: Agroathelia rolfsii, 336 h; 5 kg/ha; read-out: disease control rating, Ex. M. The format is in vivo. Here is the method:
[…] Seeds and soil were then inoculated with a mixture of sand, cereal and mycelium of the fungus Sclerotium rolfsii, causal agent of sourthern blight, and incubated in a growth chamber at 30° C. for 14 days. Disease ratings were then made.

Test [8] has as its system Rhizoctonia solani. Nature of the test: Example K cotton blight. The format is in vivo. The settings on record: 336 h, 5 kg/ha, read-out: disease control rating, Ex. K. The method, then:
[…] Seeds and soil were then inoculated with a mixture of sand, cereal and mycelium of the fungus Rhizoctonia solani, causal agent of cotton blight, and incubated in a growth chamber at 30° C. for 14 days. Disease ratings were then made.

Turning to `C=C(c1ccccc1)C(O)(Cn1cncn1)c1ccc(F)cc1` (stereo not shown) [Example 49, 2-(4-Fluorophenyl)-3-phenyl-1-(1H-1,2,4-triazol-1-yl)-3-buten-2-ol], the pest or weed control at 100 ppm in the test on Phytophthora infestans was determined as 0%; in the test on Plasmorpara viticola, 0%; with Botrytis cinerea, 62%; with Venturia inaequalis, 89%; in the test with Pyricularia oryzae it was 76%; in [4], 100%. The pest or weed control at 100 ppm in the test with Puccinia recondita came out at 100%; with Rhizoctonia solani [5] it was 96%; in test [6], 100%. For the same molecule, the responders at 150 mg/kg in test [1] (ATCC11651, 168 h, day 7) was 100%; in [1] (ATCC11651, 336 h, day 14), 90%; in test [1] (ATCC11651, 504 h, day 21) it was 60%. The pest or weed control at 5000 g/ha (in [2]; in the test with Pythium aphanadermatum) was 0% in each case. The MIC in [3] is 12.5 µg/mL (≈ 40.4 µM); in test [7], 0.03 µg/mL (≈ 0.097 µM).

Turning to `OC(Cn1cncn1)(c1ccc(F)cc1)C1(c2ccccc2)CO1` (stereo not shown) [Example 1527], the pest or weed control at 100 ppm in the test on Phytophthora infestans came to 0%; in the test on Plasmorpara viticola, 0%; in the test with Botrytis cinerea, 93%; in the test on Venturia inaequalis, 0%; in test [4], 100%; in the test with Puccinia recondita it was 100%. For the same molecule, the pest or weed control at 100 ppm in the test with Rhizoctonia solani [5] was 35%; in test [6], 100%. Besides, the responders at 150 mg/kg in test [1] (ATCC11651, 168 h, day 7) amounted to 100%; in test [1] (ATCC11651, 336 h, day 14) it was 70%; in test [1] (ATCC11651, 504 h, day 21), 20%. Further, the pest or weed control at 5000 g/ha (in test [2]; in the test with Pythium aphanadermatum) was 0% each time. In addition, the MIC worked out at 6.3 µg/mL (≈ 19.4 µM) in test [3] and 0.4 µg/mL (≈ 1.23 µM) in test [7].

Regarding `C=C(c1ccc(F)cc1)C(O)(Cn1ncnc1I)c1ccccc1F` (stereo not shown) [Example 1377], the pest or weed control at 100 ppm in the test on Phytophthora infestans came out at 0%; in the test with Plasmorpara viticola it was 44%; in the test on Botrytis cinerea, 96%; with Venturia inaequalis it was 100%; in the test with Pyricularia oryzae, 58%; in [4], 100%. Also, the pest or weed control at 100 ppm in the test on Puccinia recondita was 100%; in the test with Rhizoctonia solani [5], 100%; in [6] it was 92%. For the same molecule, the pest or weed control at 5000 g/ha (in test [2]; in the test with Pythium aphanadermatum) was 0% each time. The MIC in test [3] turned out to be 100 µg/mL (≈ 221 µM); in test [7], 1.6 µg/mL (≈ 3.53 µM).

In the case of `C=C(c1ccc(F)cc1)C(O)(CCCC)Cn1cncn1` (stereo not shown) [Example 6], the pest or weed control at 100 ppm worked out at 23% with Phytophthora infestans; 0% in the test with Plasmorpara viticola; 84% in the test on Botrytis cinerea; 0% in the test with Venturia inaequalis; 0% in the test on Pyricularia oryzae; 82% in [4]. Moreover, the pest or weed control at 100 ppm amounted to 96% in the test with Puccinia recondita, 0% with Rhizoctonia solani [5] and 98% in test [6]. Also, the responders at 150 mg/kg in test [1] (ATCC11651, 168 h, day 7) is 50%; in test [1] (ATCC11651, 336 h, day 14), 10%; in test [1] (ATCC11651, 504 h, day 21), 0%. Moreover, the minimal inhibitory concentration (MIC) in [3] came out at 25 µg/mL (≈ 86.4 µM); in test [7] it was 1.6 µg/mL (≈ 5.53 µM). Besides, the pest or weed control at 5000 g/ha with Sclerotium rolfsii, with Rhizoctonia solani [8] and in the test on Pythium aphanadermatum was 0% each time.
